The values that follow come from patent US20250188057A1, “NON-AROMATIC CYCLIC-PYRIMIDINE ANALOGS AS GLUCOSYLCERAMIDE SYNTHASE INHIBITORS” (Merck Sharp & Dohme LLC, priority 2022, published 2025).

Structures are written as SMILES.

Assay [1] deals with glucosylceramide synthase (GCS) (Homo sapiens (Human), UniProt Q16739). Nature of the assay: UDP-Glo glucosylceramide synthase biochemical assay. The settings on record: endogenous GCS in Golgi preparations isolated from human A375 malignant melanoma skin cells; UDP detection by luminescence. The method, boiled down:
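Endogenous GCS in A375 Golgi preparations (1.5 μg total protein) was preincubated with compound for 30 min at RT, then reacted with UDP-glucose and ceramide for 20 h at RT. UDP was detected by luciferase luminescence, normalized to DMSO and reference-inhibitor controls, with EC50 and % Emax from a 4PL fit.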

For assay [2], the system named is GD and PD patient-derived induced pluripotent stem cell (iPSC) neurons. As to conditions: Zunke, F. et al., Neuron 2018; cited from earlier work.

Chain of glucosylceramide synthase (GCS) (Q16739 whole entry): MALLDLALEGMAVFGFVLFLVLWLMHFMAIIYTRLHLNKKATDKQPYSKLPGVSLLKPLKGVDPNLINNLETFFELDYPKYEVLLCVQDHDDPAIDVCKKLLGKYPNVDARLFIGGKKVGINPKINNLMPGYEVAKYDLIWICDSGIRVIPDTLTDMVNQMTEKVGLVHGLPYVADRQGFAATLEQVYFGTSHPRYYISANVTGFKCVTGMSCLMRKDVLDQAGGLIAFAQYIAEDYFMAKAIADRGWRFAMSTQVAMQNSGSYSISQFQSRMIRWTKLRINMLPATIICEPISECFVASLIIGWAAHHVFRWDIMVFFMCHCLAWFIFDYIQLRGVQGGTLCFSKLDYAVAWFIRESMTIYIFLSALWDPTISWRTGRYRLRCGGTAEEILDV

As a reminder, the IC50 is the concentration needed to halve the response being measured. `COc1ccc(N2CCC3(CCN(c4nc(C5CC5)ncc4CO)C3)C2)cc1` (stereo not drawn) [Compound 125, (2-cyclopropyl-4-(7-(4-methoxyphenyl)-2,7-diazaspiro[4.4]nonan-2-yl)pyrimidin-5-yl)methanol] yielded an IC50 in assay [1] of 902 nM. In assay [1], `Cc1nc2c(s1)C(Oc1nc(C3CC3)ncc1C#N)CCC2` (stereo not drawn) [Compound 126, 2-cyclopropyl-4-((2-methyl-4,5,6,7-tetrahydrobenzo[d]thiazol-7-yl)oxy)pyrimidine-5-carbonitrile] returned an IC50 of 971 nM. As to `CCCCCCCC(=O)N[C@H](CN1CCCC1)[C@H](O)c1ccc2c(c1)OCCO2` [eliglustat, Eliglustat], the “formation of pathological α-synuclein aggregates” value in assay [2] is reported as “reverse the formation of pathological α-synuclein aggregates”.
